Measured values as given in patent publication US7951408B2, “Methods of feeding animals” (ADM Alliance Nutrition Inc., priority 2001, dated 2011).
“And” between values parts separate entries of the source, which are not always exact repeats. Equal values may be shown once. Read-outs that look alike come from different tables or passages of the source. Marks after values point to notes of the source that are not given here.

What was measured:
rumen protein digestion [1] = test: In vitro fermentation of protein meals with metal ions: RUP after 16 h; details: for Mean RUP: 150 mg/L metal ions, 16 h of fermentation
Holstein cows = details: complete feed 1020 ppm of zinc, six weeks
Text: The source of RUP was a combination of heated soybean meal, corn gluten meal, and distiller dried grains.

rumen starch digestion = test: In vitro starch digestion and pH in artificial rumen system (Ankom Daisy)
Procedure: In vitro digestions of a complete dairy pellet, and a dairy total mixed ration TMR) were performed using an artificial rumen system (Ankom Daisy system) to evaluate the effects of metal ions on rumen starch digestion.

lactating dairy cows = details: for Dry matter intake / Intestinal Amino Acid flows, Lysine / Intestinal Amino Acid flows, Methionine / Intestinal Amino Acid flows, Total Essential Amino Acids / Ruminal digestion, Neutral Detergent Fiber / Ruminal digestion, Organic Matter / Ruminal digestion, Starch: additional 250 ppm zinc
Procedure: The concentration of RUP in high and low RUP diets were manipulated by changing the proportions of low RUP feeds (soybean meal, canola) and high RUP feeds (heated soybean meal, corn gluten meal).
Using the data presented in Table 8, the amount of metal ions fed to the cows can also be expressed in grams of metal ions per kilogram of the cow's body weight per day. For instance, Table 8A presents the data of Table 8 in a different format. The average body weight is determined by the fact that an average mature dairy cow weighs about 640 kg. The grams of metal ions fed to the cow per kg of the cow's body weight per day is determined by: multiplying the DMI (kg/day) times the metal ion concentration (grams of metal ions per kg of dry feed), resulting in the amount of metal ions in grams fed to the cow per day; the amount of metal ions in grams fed to the cow per day is divided by the average body weight of the cow, thus resulting in the grams of metal ions fed to the cow per kg of the cow's body weight per day.

crossbred wether lambs = test: Performance of lambs receiving zinc or zinc, manganese, iron combinations; assay type: in vivo; details: 16% CP, Low RUP diet plus metal sulfates (about 500 ppm total metal)
Procedure: Individually fed crossbred wether lambs were fed diets containing 14% CP (as a negative control) or 16% CP with low or high RUP content to examine the feeding of divalent metals singly or in combination. Bypass protein content was increased by feeding higher amounts of heat-treated soybean meal. In the 16%, Low RUP diet, the following metal additions were tested: 500 ppm Zn; 250 ppm Zn:250 ppm Mn; and 170 ppm Zn: 170 ppm Mn: 170 ppm Fe. All metals were added in the sulfate form, and iron was in the form of ferrous sulfate. Feeding the 16% CP: High RUP diet or adding metals to the 16% CP: Low RUP tended to decrease gain and feed efficiency with only small effects on feed intake relative to that obtained with the 16%, low RUP diet (Table 6).
For instance, Table 6A presents the data of Table 6 in a different format. The average body weight is determined by dividing the sum of the initial weight and the 42 day weight of the lamb by 2.

rumen protein digestion [2] = test: In vitro digestion in artificial rumen system (Ankom Daisy): rumen protein digestion
Procedure: Metals were incorporated at 150 or 300 mg/L. […] Previous efforts focused on the digestion of high protein feeds such as oilseed meals.

[Cl][Fe]([Cl])[Cl] [Ferric Iron]
Mean RUP (rumen protein digestion [1]; Canola): 51.6^ab | Mean RUP (rumen protein digestion [1]; Cottonseed): 58.4^b | Mean RUP (rumen protein digestion [1]; Heated Canola): 81.1^a | Mean RUP (rumen protein digestion [1]; Heated SBM): 81.7^ab | Mean RUP (rumen protein digestion [1]; SBM): 29.1^a

O=S(=O)([O-])[O-].[Zn+2] [Zinc, zinc sulfate]
Milk (Holstein cows): 33.2 kg/day | Milk Fat (Holstein cows): 3.25% | Milk Protein (Holstein cows): 3.20% | Ammonia (rumen starch digestion): 30.8 mg/dL and 29.7 mg/dL | Ammonia, Main Effects (rumen starch digestion): -1.1 mg/dL | Digestion Rates, Rumen Undegraded Starch (16 hours), Main Effects (rumen starch digestion): .038** % per hour | Digestion Rates, pH Decline, Main Effects (rumen starch digestion): −.027 % per hour | Rumen Undegraded Starch (16 hours) (rumen starch digestion): 13.2% and 12.0% | Rumen Undegraded Starch (16 hours), Main Effects (rumen starch digestion): 4.0% | calculated kinetic rate for starch digestion (rumen starch digestion): decreased | pH at 16 hours, Main Effects (rumen starch digestion): .05* | pH at 48 hours, Main Effects (rumen starch digestion): .05 | rumen undegraded starch measured at 16 h (rumen starch digestion): increased | Dry matter intake (lactating dairy cows; High RUP diet): 22.2 kg/day | Intestinal Amino Acid flows, Lysine (lactating dairy cows; High RUP diet): 200.0 g/day | Intestinal Amino Acid flows, Methionine (lactating dairy cows; High RUP diet): 58.2 g/day | Intestinal Amino Acid flows, Total Essential Amino Acids (lactating dairy cows; High RUP diet): 1601 g/day | Ruminal digestion, Neutral Detergent Fiber (lactating dairy cows; High RUP diet): 24.8 % of intake | Ruminal digestion, Organic Matter (lactating dairy cows; High RUP diet): 45.5 % of intake | Ruminal digestion, Starch (lactating dairy cows; High RUP diet): 52.8 % of intake | Dry matter intake (lactating dairy cows; Low RUP diet): 21.8 kg/day | Intestinal Amino Acid flows, Lysine (lactating dairy cows; Low RUP diet): 183.3 g/day | Intestinal Amino Acid flows, Methionine (lactating dairy cows; Low RUP diet): 49.0 g/day | Intestinal Amino Acid flows, Total Essential Amino Acids (lactating dairy cows; Low RUP diet): 1331 g/day | Ruminal digestion, Neutral Detergent Fiber (lactating dairy cows; Low RUP diet): 22.0 % of intake | Ruminal digestion, Organic Matter (lactating dairy cows; Low RUP diet): 47.3 % of intake | Ruminal digestion, Starch (lactating dairy cows; Low RUP diet): 53.6 % of intake | digestion of starch in the rumen (lactating dairy cows; both the low and high RUP diets, in words): reduced | ADG (average daily gain) (crossbred wether lambs): 451^a,b g/day | G/F × 100 (ratio of weight gain to feed intake) (crossbred wether lambs): 27.3^b | Total Gain (crossbred wether lambs): 18.81^a kg | 42 day weight (crossbred wether lambs; listed as Zn): 43.8^a kg and 43.8 kg | DMI (dry matter intake) (crossbred wether lambs; listed as Zn): 1.66^a kg/day and 1.66 kg/day | Mean RUP (rumen protein digestion [1]; Canola): 57.3^b | Mean RUP (rumen protein digestion [1]; Cottonseed): 64.4^c | Mean RUP (rumen protein digestion [1]; Heated Canola): 85.2^b | Mean RUP (rumen protein digestion [1]; Heated SBM): 85.2^b | Mean RUP (rumen protein digestion [1]; SBM): 56.4^c | Average rumen undegraded protein for all samples (rumen protein digestion [2]): 45 % of protein and 48 % of protein

ferrous sulfate [Ferrous Iron]
decreasing rumen protein digestion, effectiveness (rumen protein digestion [1]; 150 mg/L, in words): substantially more effective than the ferric ion | Mean RUP (rumen protein digestion [1]; Canola): 57.7^b | Mean RUP (rumen protein digestion [1]; Cottonseed): 62.1^bc | Mean RUP (rumen protein digestion [1]; Heated Canola): 83.5^b | Mean RUP (rumen protein digestion [1]; Heated SBM): 83.9^b | Mean RUP (rumen protein digestion [1]; SBM): 42.9^b

manganous sulfate [Manganese]
Ammonia (rumen starch digestion; 150 mg/L metal): 32.1 mg/dL | Digestion Rates, Rumen Undegraded Starch (16 hours) (rumen starch digestion; 150 mg/L metal): −.137 % per hour | Digestion Rates, pH Decline (rumen starch digestion; 150 mg/L metal): .135 % per hour | Rumen Undegraded Starch (16 hours) (rumen starch digestion; 150 mg/L metal): 5.1% | pH at 16 hours (rumen starch digestion; 150 mg/L metal): −.28 | pH at 48 hours (rumen starch digestion; 150 mg/L metal): −.30 | Ammonia (rumen starch digestion; 300 mg/L metal): 34.2 mg/dL | Digestion Rates, Rumen Undegraded Starch (16 hours) (rumen starch digestion; 300 mg/L metal): −.132 % per hour | Digestion Rates, pH Decline (rumen starch digestion; 300 mg/L metal): .247 % per hour | Rumen Undegraded Starch (16 hours) (rumen starch digestion; 300 mg/L metal): 8.0% | pH at 16 hours (rumen starch digestion; 300 mg/L metal): −.34 | pH at 48 hours (rumen starch digestion; 300 mg/L metal): −.27 | Ammonia, Main Effects (rumen starch digestion; main effect of metal): 1.8 mg/dL | Digestion Rates, Rumen Undegraded Starch (16 hours), Main Effects (rumen starch digestion; main effect of metal): 0.0 % per hour | Digestion Rates, pH Decline, Main Effects (rumen starch digestion; main effect of metal): −.043 % per hour | Rumen Undegraded Starch (16 hours), Main Effects (rumen starch digestion; main effect of metal): −2.0% | pH at 16 hours, Main Effects (rumen starch digestion; main effect of metal): .05* | pH at 48 hours, Main Effects (rumen starch digestion; main effect of metal): .03 | rumen undegraded protein (rumen protein digestion [2]; Alfalfa Haylage, 150 mg/L): 26.1 | rumen undegraded protein (rumen protein digestion [2]; Alfalfa Haylage, 300 mg/L): 24.8 | rumen undegraded protein (rumen protein digestion [2]; Dairy Concentrate Feeds, 150 mg/L): 50.9 | rumen undegraded protein (rumen protein digestion [2]; Dairy Concentrate Feeds, 300 mg/L): 52.3 | Average rumen undegraded protein for all samples (rumen protein digestion [2]; metal inclusion 150 mg/L): 43.2 % of protein | Average rumen undegraded protein for all samples (rumen protein digestion [2]; metal inclusion 300 mg/L): 42.5 % of protein
